pIC50: −log10 of the molar value.
Tests used:
[1] = target: p38α (Homo sapiens, UniProt Q16539); test: p38 in-vitro HTRF enzyme assay; assay type: biochemical; conditions: IC50 value ranges
Procedure: p38 In-Vitro HTRF Enzyme Assay
The compounds of the invention can be tested for their respective affinities for the p38 protein using a conventional p38 in-vitro enzyme activity assay. For example, a P38-alpha HTRF assay may be used to measure the protein's in-vitro phosphorylation activity, and the data analyzed using time resolved fluorimetry techniques (FRET). A p38 HTRF assay is as follows. The kinase reaction buffer for p38α, p38β, p38δ and p38γ HTRF assays consists of 50 mM Tris-pH 7.5, 5 mM MgCl2, 0.1 mg/mL BSA, 100 μM Na3VO4 and 0.5 mM DTT. The HTRF detection buffer contains 100 mM HEPES-pH 7.5, 100 mM NaCl, 0.1% BSA, 0.05% Tween-20, and 10 mM EDTA. Each compound was dissolved in 100% DMSO and serially diluted (3 fold, 10 point) in a polypropylene 96-well microtiter plate (drug plate). The final starting concentration of the compound in the p38α and p38β enzymatic assays was about 1 μM. The final starting concentration of each compound in the p38δ and p38γ enzymatic assays was about 10 μM. The p38α, p38β, p38δ and p38γ kinase reactions were carried out in a polypropylene 96-well black round bottom assay plate in total volume of 30 μL kinase reaction buffer. Appropriate concentration of purified and activated enzyme (recombinant human) was mixed with indicated concentration of ATP and 100 nM GST-ATF2-Avitag, in the presence or absence (HI control) of each compound. In the absence of enzyme, the background was measured as LO control. HI controls and LO controls contained only DMSO. The reaction was allowed to incubate for 1 hour at RT. […] After 60 minutes incubation at room temperature, the assay plate was read in a Discovery Plate Reader. The wells were excited with coherent 320 nm light and the ratio of delayed ([…] post excitation) emissions at […] (native europium fluorescence) and 665 nm (europium fluorescence transferred to allophycocyanin—an index of substrate phosphorylation) was determined (Park et al, 1999). The resulting data was analyzed by taking the proportion of substrate phosphorylated in the kinase reaction in the presence of each individual compound and comparing it with that phosphorylated in the presence of DMSO vehicle alone (HI control). The data was calculated using the formula: % control (POC)=(compound−average LO)/(average HI−average LO)*100. Data (consisting of POC and inhibitor concentration in μM) was fitted to a 4-parameter equation (y=A+((B−A)/(1+((x/C)^D))), where A is the minimum y (POC) value, B is the maximum y (POC), C is the x (compound concentration) at the point of inflection and D is the slope factor, using a Levenburg-Marquardt non-linear regression algorithm. The inhibition constant (Ki) of the inhibitor was estimated from the IC50 (compound concentration at the point of inflection C) using the Cheng-Prussof equation: Ki=IC50/(1+S/Km), where S is the ATP substrate concentration, and Km is the Michaelis constant for ATP as determined experimentally. All results were expressed as the mean±the standard error of the mean. Data acquisition and non-linear regression algorithms were performed using Activity Base v5.2 and XLfit software v4.1 respectively. Additional assay information may be obtained in Park Y W, Cummings R T, Wu L, et al. Homogeneous Proximity Tyrosine Kinase Assays Scintillation Proximity Assay versus Homogeneous Time-Resolved Fluorescence. Analytical Biochemistry. 1999; 269: 94-104.

[2] = tested on: monocytes; test: Lipopolysaccharide-activated monocyte TNF production assay (LPS induced TNF release); assay type: cell-based, human; conditions: Homo sapiens, Monocyte; LPS induced TNF release from monocytes; read-out: LPS induced TNFa
Procedure: Lipopolysaccharide-Activated Monocyte TNF Production Assay
Test compounds were evaluated in vitro for the ability to inhibit the production of TNF by monocytes activated with bacterial lipopolysaccharide (LPS). Fresh residual source leukocytes (a byproduct of plateletpheresis) were obtained from a local blood bank, and peripheral blood mononuclear cells (PBMCs) were isolated by density gradient centrifugation on Ficol-Paque Plus (Pharmacia). PBMCs were suspended at 2×10^6/mL in DMEM supplemented to contain 2% FCS, 10 mM, 0.3 mg/mL […], 100 U/mL penicillin G and […] streptomycin sulfate (complete media). Cells were plated into Falcon flat bottom, 96 well culture plates (200 μL/well) and cultured overnight at 37° C. and 6% CO2. Non-adherent cells were removed by washing with 200 μl/well of fresh medium. Wells containing adherent cells (˜70% monocytes) were replenished with 100 μL of fresh medium.
Preparation of Test Compound Stock Solutions
Test compounds were dissolved in […]. Compound stock solutions were prepared to an initial concentration of […]. Stocks were diluted initially to […] in complete media. Nine two-fold serial dilutions of each compound were then prepared in complete medium.
Treatment of Cells with Test Compounds and Activation of TNF Production with Lipopolysaccharide
One hundred microliters of each test compound dilution were added to microtiter wells containing adherent monocytes and 100 μL complete medium. Monocytes were cultured with test compounds for 60 min at which time 25 μL of complete medium containing 30 ng/mL lipopolysaccharide from E. coli K532 were added to each well. Cells were cultured an additional 4 hrs. Culture supernatants were then removed and TNF presence in the supernatants was quantified using an ELISA.
Flat bottom, 96 well Corning High Binding ELISA plates were coated overnight (4° C.) with 150 μL/well of 3 μg/mL murine anti-human TNF-α MAb (R&D Systems #MAB210). Wells were then blocked for 1 h at room temperature with 200 μL/well of CaCl2-free ELISA buffer supplemented to contain 20 mg/mL BSA (standard ELISA buffer: […], 150 mM NaCl, 2 mM CaCl2, 0.15 mM thimerosal, pH 7.4). Plates were washed and replenished with 100 μL of test supernatants (diluted 1:3) or standards. Standards consisted of eleven 1.5-fold serial dilutions from a stock of 1 ng/mL recombinant human TNF (R&D Systems). Plates were incubated at room temperature for 1 h on orbital shaker (300 rpm), washed and replenished with 100 μL/well of 0.5 μg/mL goat anti-human TNF-α (R&D systems #AB-210-NA) biotinylated at a 4:1 ratio. Plates were incubated for 40 min, washed and replenished with 100 μL/well of alkaline phosphatase-conjugated streptavidin (Jackson ImmunoResearch #016-050-084) at 0.02 μg/mL. Plates were incubated 30 min, washed and replenished with 200 μL/well of 1 mg/mL of p-nitrophenyl phosphate.
Standard curve data were fit to a second order polynomial and unknown TNF-α concentrations determined from their OD by solving this equation for concentration. TNF concentrations were then plotted vs. test compound concentration using a second order polynomial. This equation was then used to calculate the concentration of test compounds causing a 50% reduction in TNF production.

[3] = tested on: THP1 cells; test: Lipopolysaccharide-activated THP1 cell TNF production assay; assay type: cell-based, human; conditions: Homo sapiens, THP-1; LPS-induced TNF-α production in THP1 cells
Procedure: Lipopolysaccharide-Activated THP1 Cell TNF Production Assay
THP1 cells are resuspended in fresh THP1 media (RPMI 1640, 10% heat-inactivated FBS, 1×PGS, 1×NEAA, plus 30 μM βME) at a concentration of 1E6/mL. One hundred microliters of cells per well are plated in a polystyrene 96-well tissue culture. One microgram per mL of bacterial LPS is prepared in THP1 media and is transferred to the wells. Test compounds are dissolved in 100% DMSO and are serially diluted 3-fold in a polypropylene 96-well microtiter plate (drug plate). HI control and LO control wells contain only DMSO. One microliter of test compound from the drug plate followed by 10 μL of LPS are transferred to the cell plate. The treated cells are induced to synthesize and secrete TNF-α at 37° C. for 3 h. Forty microliters of conditioned media are transferred to a 96-well polypropylene plate containing 110 μL of ECL buffer (50 mM Tris-HCl pH 8.0, 100 mM NaCl, 0.05% Tween 20, 0.05% NaN3 and 1% FBS) supplemented with 0.44 nM MAB610 monoclonal Ab (R&D Systems), 0.34 nM ruthenylated AF210NA polyclonal Ab (R&D Systems) and 44 μg/mL sheep anti-mouse M280 Dynabeads (Dynal). After a 2 h incubation at room temperature with shaking, the reaction is read on the ECL M8 Instrument (IGEN Inc.). A low voltage is applied to the ruthenylated TNF-α immune complexes, which in the presence of TPA (the active component in Origlo), results in a cyclical redox reaction generating light at […]. The amount of secreted TNF-α in the presence of compound compared with that in the presence of DMSO vehicle alone (HI control) is calculated using the formula: % control (POC)=(cpd−average LO)/(average HI−average LO)*100. Data (consisting of POC and inhibitor concentration in μM) is fitted to a 4-parameter equation (y=A+((B−A)/(1+((x/C)^D))), where A is the minimum y (POC) value, B is the maximum y (POC), C is the x (cpd concentration) at the point of inflection and D is the slope factor) using a Levenburg-Marquardt non-linear regression algorithm.

p38α, sequence (Q16539 whole entry): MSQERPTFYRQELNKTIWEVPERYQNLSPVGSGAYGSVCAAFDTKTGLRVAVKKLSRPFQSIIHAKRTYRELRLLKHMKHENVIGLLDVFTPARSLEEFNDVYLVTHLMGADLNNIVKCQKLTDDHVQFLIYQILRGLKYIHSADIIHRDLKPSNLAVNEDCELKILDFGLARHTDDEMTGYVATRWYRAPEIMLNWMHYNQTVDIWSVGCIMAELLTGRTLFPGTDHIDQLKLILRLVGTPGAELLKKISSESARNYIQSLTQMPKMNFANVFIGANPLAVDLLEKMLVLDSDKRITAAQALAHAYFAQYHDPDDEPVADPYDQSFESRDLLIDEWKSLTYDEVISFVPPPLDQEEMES

| SMILES | pIC50 [1] | pIC50 [2] | pIC50 [3] |
| --- | --- | --- | --- |
| Cc1ccc(C(=O)NC2CC2)cc1-c1ccn2c(CC(F)(F)F)nnc2c1 [Example 31, N-cyclopropyl-4-methyl-3-(3-(2,2,2-trifluoroethyl)[1,2,4]triazolo[4,3-a]pyridin-7-yl)benzamide] | 7.00 to 7.60 | 6.00 to 6.60 | 6.60 to 7.00 |
| Cc1ccc(C(=O)Nc2ccnn2C)cc1-c1ccn2c(-c3ccccc3Cl)ncc2c1 [Example 9, 3-(3-(2-chlorophenyl)imidazo[1,5-a]pyridin-7-yl)-4-methyl-N-(1-methyl-1H-pyrazol-5-yl)benzamide] | > 7.60 | 7.00 to 7.60 | > 7.60 |
| Cc1ccc(C(=O)NC2CC2)cc1-c1ccn2c(-c3ccc(F)cc3Cl)nnc2c1 [Example 42, 3-(3-(2-chloro-4-fluorophenyl)[1,2,4]triazolo[4,3-a]pyridin-7-yl)-N-cyclopropyl-4-methylbenzamide] | > 7.60 | 6.60 to 7.00 | 7.00 to 7.60 |
| CNC(=O)c1ccc(C)c(-c2ccn3c(-c4ccccc4Cl)nnc3c2)c1 [Example 40, 3-(3-(2-chlorophenyl)[1,2,4]triazolo[4,3-a]pyridin-7-yl)-N,4-dimethylbenzamide] | 7.00 to 7.60 | 6.60 to 7.00 | 7.00 to 7.60 |
| Cc1ccc(C(=O)NC2CC2)cc1-c1ccn2c(N)nnc2c1 [Example 1, 3-(3-amino[1,2,4]triazolo[4,3-a]pyridin-7-yl)-N-cyclopropyl-4-methylbenzamide] | 6.00 to 6.60 | 5.30 to 6.00 | 5.30 to 6.00 |
| Cc1ccc(C(=O)NC2CC2)cc1-c1ccn2c(-c3ccccc3C)nnc2c1 [Example 32, N-cyclopropyl-4-methyl-3-(3-(2-methylphenyl)[1,2,4]triazolo[4,3-a]pyridin-7-yl)benzamide] | > 7.60 | 6.60 to 7.00 | 7.00 to 7.60 |
| Cc1ccc(C(=O)Nc2ccnn2C)cc1-c1ccn2c(-c3ccc(F)cc3Cl)nnc2c1 [Example 45, 3-(3-(2-chloro-4-fluorophenyl)[1,2,4]triazolo[4,3-a]pyridin-7-yl)-4-methyl-N-(1-methyl-1H-pyrazol-5-yl)benzamide] | > 7.60 | 6.60 to 7.00 | > 7.60 |
| Cc1ccc(C(=O)NC2CC2)cc1-c1ccn2c(C3CCCC3)nnc2c1 [Example 95, 3-(3-cyclopentyl[1,2,4]triazolo[4,3-a]pyridin-7-yl)-N-cyclopropyl-4-methylbenzamide] | > 7.60 | 7.00 to 7.60 | > 7.60 |
| Cc1ccc(C(=O)NC2CC2)cc1-c1cc2nnc(-c3ccccc3Cl)n2cc1C [Example 35, 3-(3-(2-chlorophenyl)-6-methyl[1,2,4]triazolo[4,3-a]pyridin-7-yl)-N-cyclopropyl-4-methylbenzamide] | > 7.60 | 7.00 to 7.60 | > 7.60 |
| Cc1ccc(C(=O)NC2CC2)cc1-c1ccn2c(-c3sccc3Cl)nnc2c1 [Example 55, 3-(3-(3-chloro-2-thienyl)[1,2,4]triazolo[4,3-a]pyridin-7-yl)-N-cyclopropyl-4-methylbenzamide] | > 7.60 | 7.00 to 7.60 | > 7.60 |
| Cc1ccc(C(=O)Nc2ccnn2C)cc1-c1ccn2c(C3(C(F)(F)F)CC3)nnc2c1 [Example 20, 4-methyl-N-(1-methyl-1H-pyrazol-5-yl)-3-(3-(1-(trifluoromethyl)cyclopropyl)[1,2,4]triazolo[4,3-a]pyridin-7-yl)benzamide] | > 7.60 | – | > 7.60 |
| Cc1ccc(C(=O)NC2CC2)cc1-c1ccn2c(C(C)C)nnc2c1 [Example 27, N-cyclopropyl-4-methyl-3-(3-(1-methylethyl)[1,2,4]triazolo[4,3-a]pyridin-7-yl)benzamide] | > 7.60 | – | 7.00 to 7.60 |
| Cc1ccc(C(=O)NC2CC2)cc1-c1ccn2c(C3(C(F)(F)F)CC3)nnc2c1 [Example 21, N-cyclopropyl-4-methyl-3-(3-(1-(trifluoromethyl)cyclopropyl)[1,2,4]triazolo[4,3-a]pyridin-7-yl)benzamide] | > 7.60 | – | > 7.60 |

— patent US7700593B2, “Imidazo- and triazolo-pyridine compounds and methods of use thereof” (Amgen Inc., priority 2006, dated 2010)
